Reference: patent US9827312B2, “Method for carrying therapeutic substances into cells” (MAGFORCE AG, priority 2005, dated 2017)

Columns and labels:
Conditions in all cases: procedure of example 2
[1] = tested on: rectal carcinoma cells; assay: Increase in the activity of cytostatics with nanoparticles (Table 1), rectal carcinoma; assay type: cell-based
Procedure: (§1) The experiments in vitro were carried out with the cell lines BT20 (breast carcinoma) and WiDr (colon carcinoma). The tumor cells were taken from tumor tissue of a patient and cultivated as described in DE 199 12 798 C1. 2×10^6 cells, respectively, were prepared in a 75 cm^3 cell culture bottle with 25 ml of cell culture medium (RPMI+10% FBS+1.2 ml of pyruvate for WiDr cells, or respectively BME+10% FBS+pyruvate+5 ml of non-essential amino acids+5 ml glutamine for BT20 cells) for testing the efficacy of the cefamandole/nanoparticle mixture. 136 μl of magnetic fluid MFL AS M01 (iron oxide nanoparticle coated with polycondensed N-(2-aminoethyl)-3-(trimethoxysilyl)propylamine, manufacturer: MagForce Nanotechnologies GmbH, Berlin, Germany) (cFe=2 mol/l) and 390 μl of cefamandole solution (stock solution 1 mg/ml in 0.9% NaCl) were added to said cell suspension.
(§2) Corresponding to the experiment procedure according to example 2, the following […] were tested in vitro with the active ingredients listed in table 1: a) glioblastoma human cell line RUSIRS 1; b) breast carcinoma cell lines BT20; c) colon carcinoma cell line WiDR; d) bronchial carcinoma cells NSCLC, e) rectal carcinoma cells and f) prostate carcinoma cell line DU 145.
(§3) In all cases, an increased activity of the cytostatic could be observed. The increase in activity is indicated in parentheses after the respective cytostatic, wherein (+) means an increase of about 5% to 80% and (++) means an increase of 80% to 500%.

[2] = tested on: prostate carcinoma cell line DU 145; assay: Increase in the activity of cytostatics with nanoparticles (Table 1), DU 145; assay type: cell-based
Procedure: as §1, §2, §3

[3] = tested on: bronchial carcinoma cells NSCLC; assay: Increase in the activity of cytostatics with nanoparticles (Table 1), NSCLC; assay type: cell-based
Procedure: as §1, §2, §3

[4] = tested on: breast carcinoma cell lines BT20; assay: Increase in the activity of cytostatics with nanoparticles (Table 1), BT20; assay type: cell-based, human
Procedure: as §1, §2, §3

[5] = tested on: colon carcinoma cell line WiDr; assay: Increase in the activity of cytostatics with nanoparticles (Table 1), WiDr; assay type: cell-based, human
Procedure: as §1, §2, §3

[6] = tested on: neuroglioma cell line H4; assay: Increase in the activity of cytostatics with nanoparticles (Table 1), H4; assay type: cell-based
Procedure: as §1, §2, §3

[7] = tested on: glioblastoma human cell line RUSIRS1; assay: Increase in the activity of cytostatics with nanoparticles (Table 1), RUSIRS1; assay type: cell-based
Procedure: as §1, §2, §3

SMILES | increase in the activity of cytostatics [1] | increase in the activity of cytostatics [2] | increase in the activity of cytostatics [3] | increase in the activity of cytostatics [4] | increase in the activity of cytostatics [5] | increase in the activity of cytostatics [6] | increase in the activity of cytostatics [7]
NC[C@H]1O[C@H](O[C@H]2[C@H](O)[C@@H](O[C@H]3O[C@H](CO)[C@@H](O)[C@H](N)[C@H]3O)[C@H](N)C[C@@H]2N)[C@H](N)C[C@@H]1O [tobramycin] | (+) ((+) means an increase of about 5% to 80%) | (+) ((+) means an increase of about 5% to 80%) | (+) ((+) means an increase of about 5% to 80%) | (+) ((+) means an increase of about 5% to 80%) | (+) ((+) means an increase of about 5% to 80%) | (+) ((+) means an increase of about 5% to 80%) | (+) ((+) means an increase of about 5% to 80%)
Cc1onc(-c2ccccc2)c1C(=O)N[C@@H]1C(=O)N2[C@@H]1SC(C)(C)[C@@H]2C(=O)O [oxacillin] | (+) ((+) means an increase of about 5% to 80%) | (++) ((++) means an increase of 80% to 500%) | (+) ((+) means an increase of about 5% to 80%) | (+) ((+) means an increase of about 5% to 80%) | (++) ((++) means an increase of 80% to 500%) | (+) ((+) means an increase of about 5% to 80%) | (+) ((+) means an increase of about 5% to 80%)
COCc1c(C(C)C)nc(C(C)C)c(/C=C/[C@@H](O)C[C@@H](O)CC(=O)O)c1-c1ccc(F)cc1 [cerivastatin] | (++) ((++) means an increase of 80% to 500%) | (+) ((+) means an increase of about 5% to 80%) | (+) ((+) means an increase of about 5% to 80%) | (+) ((+) means an increase of about 5% to 80%) | (+) ((+) means an increase of about 5% to 80%) | (+) ((+) means an increase of about 5% to 80%) | (+) ((+) means an increase of about 5% to 80%)
Cc1oncc1C(=O)Nc1ccc(C(F)(F)F)cc1 [leflunomide] | (+) ((+) means an increase of about 5% to 80%) | (+) ((+) means an increase of about 5% to 80%) | (+) ((+) means an increase of about 5% to 80%) | (+) ((+) means an increase of about 5% to 80%) | (+) ((+) means an increase of about 5% to 80%) | (+) ((+) means an increase of about 5% to 80%) | (+) ((+) means an increase of about 5% to 80%)
Nc1ccn([C@@H]2O[C@H](CO)[C@@H](O)C2(F)F)c(=O)n1 [gemcitabine] | (+) ((+) means an increase of about 5% to 80%) | (+) ((+) means an increase of about 5% to 80%) | (++) ((++) means an increase of 80% to 500%) | (+) ((+) means an increase of about 5% to 80%) | (+) ((+) means an increase of about 5% to 80%) | (+) ((+) means an increase of about 5% to 80%) | (+) ((+) means an increase of about 5% to 80%)
CO[C@H]1C[C@@H]2CC[C@@H](C)[C@@](O)(O2)C(=O)C(=O)N2CCCC[C@H]2C(=O)O[C@H]([C@H](C)C[C@@H]2CC[C@@H](O)[C@H](OC)C2)CC(=O)[C@H](C)/C=C(\C)[C@@H](O)[C@@H](OC)C(=O)[C@H](C)C[C@H](C)/C=C/C=C/C=C/1C [rapamycin] | (++) ((++) means an increase of 80% to 500%) | (+) ((+) means an increase of about 5% to 80%) | (+) ((+) means an increase of about 5% to 80%) | (++) ((++) means an increase of 80% to 500%) | (+) ((+) means an increase of about 5% to 80%) | (+) ((+) means an increase of about 5% to 80%) | (+) ((+) means an increase of about 5% to 80%)
N.N.[Cl][Pt][Cl] [cisplatin] | (+) ((+) means an increase of about 5% to 80%) | (+) ((+) means an increase of about 5% to 80%) | (++) ((++) means an increase of 80% to 500%) | (+) ((+) means an increase of about 5% to 80%) | (+) ((+) means an increase of about 5% to 80%) | (++) ((++) means an increase of 80% to 500%) | (+) ((+) means an increase of about 5% to 80%)
N#Cc1ccc(C(c2ccc(C#N)cc2)n2cncn2)cc1 [letrozole] | (+) ((+) means an increase of about 5% to 80%) | (+) ((+) means an increase of about 5% to 80%) | (+) ((+) means an increase of about 5% to 80%) | (+) ((+) means an increase of about 5% to 80%) | (+) ((+) means an increase of about 5% to 80%) | (+) ((+) means an increase of about 5% to 80%) | (+) ((+) means an increase of about 5% to 80%)
Cc1ccc(NC(=O)c2ccc(CN3CCN(C)CC3)cc2)cc1Nc1nccc(-c2cccnc2)n1 [imatinib] | (+) ((+) means an increase of about 5% to 80%) | (+) ((+) means an increase of about 5% to 80%) | (+) ((+) means an increase of about 5% to 80%) | (+) ((+) means an increase of about 5% to 80%) | (++) ((++) means an increase of 80% to 500%) | (+) ((+) means an increase of about 5% to 80%) | (+) ((+) means an increase of about 5% to 80%)
CC(=O)O[C@H]1C(=O)[C@@]2(C)[C@H]([C@H](OC(=O)c3ccccc3)[C@]3(O)C[C@H](OC(=O)[C@H](O)[C@@H](NC(=O)c4ccccc4)c4ccccc4)C(C)=C1C3(C)C)[C@]1(OC(C)=O)CO[C@@H]1C[C@@H]2O [paclitaxel] | (+) ((+) means an increase of about 5% to 80%) | (+) ((+) means an increase of about 5% to 80%) | (+) ((+) means an increase of about 5% to 80%) | (++) ((++) means an increase of 80% to 500%) | (+) ((+) means an increase of about 5% to 80%) | (+) ((+) means an increase of about 5% to 80%) | (+) ((+) means an increase of about 5% to 80%)
